Earlier results as cited in patent publication US20210324434A1, “METHOD FOR PRODUCING RARE SUGAR-CONTAINING COMPOSITION AND RARE SUGAR-CONTAINING COMPOSITION” (NATIONAL UNIVERSITY CORPORATION KAGAWA UNIVERSITY, priority 2018, published 2021).

What was measured:
[1] = relative to sugar
[2] = already known

Row | SMILES | sweetness intensity, % of that of sugar [1] | result of an acute oral toxicity test [2]
1 | O=C(CO)[C@@H](O)[C@H](O)[C@H](O)CO [D-fructose] | about 170% | –
2 | O=C(CO)[C@H](O)[C@H](O)[C@H](O)CO [D-psicose] | about 70% | ≥ 5,000 mg/kg
3 | O=C[C@H](O)[C@@H](O)[C@H](O)[C@H](O)CO [D-glucose] | about 70% | –
